Test results reported in US7704686B2, “Methods of identifying immunoregulatory agents, immunoregulatory agents, and uses thereof” (Toudai TLO, Ltd., priority 2003, dated 2010).

Columns and labels:
Type in all cases: cell-based, human
[1] = test system: caveolin-1 on cell surface of monocytes; assay: Flow cytometric detection of cell surface caveolin-1 on monocytes; settings: Filipin 1.0 μg/ml preincubation 30 min, then with or without TT
Description: For assessment of cell surface caveolin-1 exposure, after purified monocytes were treated with TT (0.5 μg/ml) for 0, 6, 12, 24, and 48 h, cells were washed with ice-cold PBS three times, and stained with anti-caveolin-1 antibody (5 μg/ml) for 60 min at 4° C., followed by staining with FITC conjugated anti-rabbit Ig antibody (1:200) for 60 min at 4° C. To disturb caveolae, purified monocytes were treated with Filipin (1.0 μg/ml, Sigma-Aldrich) for 30 min at 37° C. Cells were then subjected to TT loading and to staining caveolin-1 as described above.
(§1) Flow-cytometric analysis of 10,000 viable cells was conducted on Becton-Dickinson FACScalibur. Each experiment was repeated at least three times, and the results were provided in the form of a histogram of a representative experiment, or increased mean percent±standard error (SE) of mean-fluorescent intensity (MFI), compared to control or untreated cells.

[2] = test system: conjugation of activated T cells and TT-loaded monocytes; assay: T cell-APC conjugation assay; settings: monocytes preincubated with Filipin 30 min, then with or without TT
Description: For T cell-APC conjugation assay as described elsewhere (Lee, et al., 2002), 1.0×10^5 of activated T cells were mixed with 1.0×10^5 of purified monocytes that had been pulsed with or without TT (0.5 μg/ml for indicated time periods), with further centrifugation. Thirty minutes later, cell mixtures were attached to microslide glass (Matsunami Glass Inc., Tokyo, Japan) coated with poly-L-lysine, and fixed with 4% paraformaldehyde in PBS for 15 min at room temperature. Cells were blocked with mouse and rabbit Ig isotypes (1 μg/ml) for 30 min at 4° C., followed by incubation with anti-CD26 mAb and anti-caveolin-1 rabbit pAb (each of 10 μg/ml) for 60 min at 4° C., then washed with ice-cold PBS twice and incubated with FITC conjugated anti-mouse Ig and Texas red conjugated anti-rabbit Ig antibodies (1:200) for 60 min at 4° C. Cells were mounted in coverslips with Antifade Prolong kit. Conjugates were first identified by direct observation under differential interference contrast and then confirmed by detecting the green fluorescence of anti-CD26 mAb in T cells and the red fluorescence of anti-caveolin-1 pAb in monocytes. The proportion of T cell-APC conjugation was calculated by random choice of 500 different cells in a coverslips from five independent experiments. […]

CD86 = assay: Flow cytometry of surface CD86 on TT-loaded monocytes stimulated with CD26-coated beads; settings: siRNA-transfected monocytes, stimulated with CD26 wt-coated beads
Description: Freshly purified monocytes were cultured in Macrophage-SFM media for 24 h to diminish the effect of serum, and were preincubated with TT at a concentration of 0.5 μg/ml for an additional 24 h. After being washed with PBS, 1.0×10^6 of TT-loaded monocytes were stimulated for indicated periods with […] particles of polystyrene latex beads (Molecular Probes) coated with rsCD26 wt or rsCD26 del 201-211 (1.0 μg/ml). Stimulated monocytes were subjected to confocal laser microscopy, immunoprecipitation assay, Western blotting analysis, or flow cytometry (FCM).
In experiments assessing the expression of CD86 on purified monocytes after preincubation with or without TT (0.5 μg/ml) for 24 hours, following incubation with rsCD26-coated beads for 24 h, FITC-conjugated CD86 mAb (10 μg/ml) were used with PE-conjugated anti-CD14 (10 μg/ml) and Cy Chrome-conjugated CD45 (10 μg/ml) to gate exclusively on the monocyte population. In experiments assessing the effect of siRNA against caveolin-1 in monocytes, purified monocytes were transfected with siRNA as described below, following incubation with rsCD26-coated beads for 24 h, and stained as described above.
as §1
To design target-specific siRNA duplexes, the present inventors selected sequences of the type AA(N19) (N, any nucleotide) from the open reading frame of human caveolin-1 (accession number=NM 001753) (Elbashir, et al., 2001). Moreover, the inventors added the sequences to the 2-nucleotide 3′ overhangs of 2′-deoxythymidine (dTdT), in order to generate a symmetric duplex with respect to the sequence composition of the sense and antisense 3′ overhangs. […]

caveolin-1 = assay: Western blot of caveolin-1 in siRNA-transfected monocytes; settings: 48 hrs after transfection, HVJ-E vector
Description: Lysates were generated with RIPA lysis buffer (1% NP-40, 0.5% sodium deoxycholate, 0.1% SDS, 5 mM EDTA, 10 mM Tris-HCl (pH 7.4), 0.15 M NaCl, 1 mM PMSF, 0.5 mM NaF, 10 μg/ml aprotinin and 0.02 mM Na3VO4) from 1.0×10^7 of THP-1 cells incubated with recombinant soluble CD26 (rsCD26) or 1.0×10^7 of TT-loaded monocytes stimulated with rsCD26-coated beads. Then, lysates were clarified by 15,000×g for 30 min. Immunoprecipitates (IPs) were performed by incubating lysates with 2 μg of control immunoglobulins (Ig) and protein G-sepharose beads (Amersham Pharmacia) at 4° C. for 1 h. After centrifugation, supernatants were incubated with 2 μg of specific Ig at 4° C. for 2 h, followed by addition of protein G-sepharose beads for an overnight incubation. After washing four times with RIPA lysis buffer, beads were submitted to SDS-PAGE and Western blot analysis.
To design target-specific siRNA duplexes, the present inventors selected sequences of the type AA(N19) (N, any nucleotide) from the open reading frame of human caveolin-1 (accession number=NM 001753) (Elbashir, et al., 2001). Moreover, the inventors added the sequences to the 2-nucleotide 3′ overhangs of 2′-deoxythymidine (dTdT), in order to generate a symmetric duplex with respect to the sequence composition of the sense and antisense 3′ overhangs. These symmetric 3′ overhangs were reported to help to ensure that the siRNA were formed with approximately equal ratios of sense and antisense target RNA-cleaving siRNA (Elbashir, et al., 2001). Therefore, the present inventors selected two target sequences from 81 to 101 (ss1) and […] (ss2) downstream of the start codon of caveolin-1 mRNA (sense1 siRNA (ss1-siRNA): 5′[…] CAGACdTdT (SEQ ID NO: 6), and sense2 siRNA (ss2-siRNA): 5′ AAGGAGA […] dTdT (SEQ ID NO: 7)). Moreover, mis-siRNA at 4 nucleotides was prepared to examine non-specific effects of siRNA duplexes (mis-siRNA: 5′ […] GCAGACdTdT (SEQ ID NO: 8)). To visualize the efficiency of transfection, the inventors also prepared Texas red-conjugated missense siRNA (mis-siRNA-TR). […]

Row | Compound | caveolin-1 on cell surface of monocytes [1] | T cell-monocyte cell conjugation [2] | effect on CD86 upregulation in TT-loaded monocytes (CD86) | caveolin-1 expression in monocytes (knock down) (caveolin-1)
1 | CCCCC[C@@H](O)[C@H]1C(=O)O[C@H](C)[C@@H](O)/C=C/C=C/C=C/C=C/C=C(\C)[C@@H](O)C[C@H](O)C[C@H](O)C[C@H](O)C[C@H](O)C[C@H](O)C[C@@H]1O [Filipin] | not detected | not detected | – | –
2 | 5′ UACAAGAAGGGCAUG GCAGACdTdT [mismatched siRNA] | – | – | did not exhibit this inhibitory effect | not significantly knocked down
3 | 5′ AAGGAGA UCGACCUGGUCAAC dTdT [ss2] | – | – | inhibited | effectively knocked down
4 | 5′AACAACAAGGCCAUGG CAGACdTdT [ss1] | – | – | inhibited | effectively knocked down
